Laboratory results: patent US20190046486A1, “COMPOSITIONS AND METHODS FOR THE TREATMENT OF NEURONAL INJURY” (AXCELLA HEALTH INC., priority 2017, published 2019)

What was measured:
IL-6 = IL-6 levels in LPS-activated primary microglia cells treated with amino acid combinations; format: cell-based, mouse; conditions: for IL-6 Measurements, Mean: mouse microglia supernatant, 12 h after LPS 100 ng/ml, LIV 2.5 mM, NAC, ALCAR, CR 1 mM each, 6 replicates
Description: (§1) Pups were decapitated, brains removed from the skulls, cortices dissected and collected in Calcium and Magnesium free Hanks Balanced Salt Solution (CMF-HBSS) on ice. Cortices were chopped with a sterile razor blade in chop solution (CMF-HBSS) and digested in 2 ml digestion solution (0.25% trypsin in CMF-HBSS) in a 15 ml sterile plastic tube for 20 minutes at 37° C. in a water bath. After removing as much as possible of the digestion solution (approximately 1 ml), the digestion was stopped by adding 3 ml stop solution (0.01% DNaseI and 0.5% trypsin inhibitor in FCS). Cortices were triturated 10-15 times with a fire-polished Pasteur pipette and centrifuged at 300 g for 5 minutes. The pellet was resuspended in 1 ml nutrition medium (10% FCS, 1% Penicillin-Streptomycin, 2 mM L-glutamine in DMEM) per pup. Cells were seeded into poly-D-lysine pre-coated T75 flasks containing 14 ml nutrition medium (one pup per flask). Medium was changed every 3 to 4 days and cells were cultured at 37° C., 95% humidity and 5% CO2 for approximately 14 days before harvesting the microglia.
(§2) After approximately 14 days of cultivation microglia cells were harvested by shaking the T75 flasks at 200 rpm at 37° C. for 2 h. After visual inspection confirming that the microglia cells had detached, the supernatants containing the microglia were transferred to 50 ml tubes (supernatant from 1 flask into 1 tube) and centrifuged at 300 g for 10 minutes. The pelleted microglia cells were resuspended in 2 ml of nutrition medium. Microglia cells were seeded into uncoated plates 1×10^5 cells/well (96 well plate) and incubated for 2 h at 37° C. Then the plates were rocked at 100 rpm for 5 minutes to detach the oligodendrocytes. The medium containing the oligodendrocytes was exchanged with fresh medium and microglia cells were incubated for 2 days at 37° C. before LPS treatment. 24 h before LPS stimulation single amino acids and combinations were administered. Next, 1 h before LPS stimulation, medium was changed to treatment medium (DMEM, 5% FBS, 2 mM L-glutamine) containing amino acids or combinations. Cells were maintained in treatment medium for the remaining culture period. One hour after changing cells to treatment medium, cells were stimulated with LPS (100 ng/ml) for 12 h in total. Cells treated with vehicle, LPS alone served as controls.
(§3) After 12 h of LPS stimulation, cell supernatants were collected and cytokines IL-6 and TNFα were measured. […]
(§4) Levels of TNFα an IL-6 were measured in supernatants of primary microglia cells collected 12 h after LPS stimulation. Cytokines were measured by an immunosorbent assay (U-PLEX Custom Mouse Cytokine, Mesoscale Discovery) according to the instructions of the manufacturer and evaluated in comparison to calibration curves provided in the kit. […]

TNFα = TNFα levels in LPS-activated primary microglia cells treated with amino acid combinations; format: cell-based, mouse; conditions: for TNFα Measurements, Mean: mouse microglia supernatant, 12 h after LPS 100 ng/ml, LIV 2.5 mM, NAC, ALCAR, CR 1 mM each, 6 replicates
Description: as §1, §2, §3, §4

[1] = mouse microglia activated with LPS

SMILES | IL-6 Measurements, Mean (IL-6) [pg per ml] | TNFα Measurements, Mean (TNFα) [pg per ml] | IL-6 protein level compared to vehicle treated with LPS stimulus (IL-6; [1]) | TNFα protein level compared to vehicle treated with LPS stimulus (TNFα; [1])
CC(=O)O[C@H](CC(=O)[O-])C[N+](C)(C)C [ALCAR, acetyl-1-carnitine] | 59600 | 21897 | – | –
CN(CC(=O)O)C(=N)N [CR, creatine] | 56492 | 17884 | – | –
CC(=O)N[C@@H](CS)C(=O)O [NAC, N-acetylcysteine] | 46749 | 14814 | reduced | reduced
